The assay concerns the target human APJ receptor (Homo sapiens (Human), UniProt P35414). Nature of the assay: biochemical. Format: biochemical. Conditions: read-out: Activity hAPJ SPA EC50 IP. The protocol:
The human APJ receptor was cloned by polymerase chain reaction and the gene encoding the receptor was subcloned in pFLAG-CMV™-3 expression vector (Sigma, Saint Louis, Mo. USA) in-house at Amgen. A GTPγS binding assay was performed on membranes prepared from CHO cells stably expressing human APJ receptor. The optimum experimental conditions for the concentrations of GDP, MgCl2, and NaCl in the assay buffer were initially determined. The assay was performed in assay buffer [20 mM HEPES, pH 7.5, 5 mM MgCl2, and 0.1% (w/v) BSA with 200 mM NaCl, 3 μM GDP] and membranes expressing human APJ receptor/well along with WGA PS beads. The reaction was initiated by addition of 0.2 nM [^35S]GTPγS (Perkin Elmer Life and Analytical Sciences, Waltham USA) in the absence or presence of various ligands and incubated at RT for 90 min. […] All the results presented are means of several independent experiments and analyzed by non-linear regression methods using commercially available program Prism (GraphPad, San Diego, Calif.) to obtain EC50 detailed in Table 58.

Each structure is given as a SMILES string.

The values below come from patent US10058550B2, “Methods of treating heart failure” (priority 2015, dated 2018).

Sequence of human APJ receptor (P35414 whole entry): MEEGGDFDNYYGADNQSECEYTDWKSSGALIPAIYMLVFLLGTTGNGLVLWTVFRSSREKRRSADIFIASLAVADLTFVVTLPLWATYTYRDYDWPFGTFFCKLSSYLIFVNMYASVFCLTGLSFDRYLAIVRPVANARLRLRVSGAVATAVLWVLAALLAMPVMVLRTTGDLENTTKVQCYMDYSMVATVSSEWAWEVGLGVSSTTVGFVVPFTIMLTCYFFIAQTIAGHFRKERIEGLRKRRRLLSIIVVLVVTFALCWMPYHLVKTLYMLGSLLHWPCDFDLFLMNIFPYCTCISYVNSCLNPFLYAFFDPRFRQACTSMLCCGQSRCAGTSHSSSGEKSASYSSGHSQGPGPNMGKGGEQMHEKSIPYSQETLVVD

For orientation: EC50 means the midpoint of the concentration-response curve. `COc1cccc(-c2nnc(NS(=O)(=O)[C@@H](C)[C@H](OC)c3ncc(C)cn3)n2-c2c(OC)ccnc2OC)n1` (atropisomer, axis not shown) [Example 636.0, (1R,2S, P)-N-(4-(2,4-dimethoxypyridin-3-yl)-5-(6-methoxypyridin-2-yl)-4H-1,2,4-triazol-3-yl)-1-methoxy-1-(5-methylpyrimidin-2-yl)propane-2-sulfonamide and (1R,2S, M)-N-(4-(2,4-dimethoxypyridin-3-yl)-5-(6-methoxypyridin-2-yl)-4H-1,2,4-triazol-3-yl)-1-methoxy-1-(5-methylpyrimidin-2-yl)propane-2-sulfonamide]: the EC50 stood at 0.4 nM. Consider `COc1cccc(F)c1-n1c(NS(=O)(=O)[C@@H](C)[C@H](C)c2ncc(C)cn2)nnc1-c1cncc(C)c1` (atropisomer, axis not shown) [Example 688.0, (2S,3R, P)-N-(4-(2-fluoro-6-methoxyphenyl)-5-(5-methyl-3-pyridinyl)-4H-1,2,4-triazol-3-yl)-3-(5-methyl-2-pyrimidinyl)-2-butanesulfonamide 2,2,2-trifluoroacetate and (2S,3R, M)-N-(4-(2-fluoro-6-methoxyphenyl)-5-(5-methyl-3-pyridinyl)-4H-1,2,4-triazol-3-yl)-3-(5-methyl-2-pyrimidinyl)-2-butanesulfonamide 2,2,2-trifluoroacetate], for which the EC50 is 0.66 nM. Turning to `COc1cccc(-c2nnc(NS(=O)(=O)[C@@H](C)[C@H](OC)c3ncc(C)cn3)n2-c2cccnc2OC)n1` (atropisomer, axis not shown) [Example 741.0, (1R,2S)-1-methoxy-N-(5-(6-methoxypyridin-2-yl)-4-(2-methoxypyridin-3-yl)-4H-1,2,4-triazol-3-yl)-1-(5-methylpyrimidin-2-yl)propane-2-sulfonamide], the concentration for a half-maximal effect (EC50) stood at 3.1 nM.

Turning to `COc1ccccc1-n1c(NS(=O)(=O)[C@@H](C)[C@H](C)c2ncc(C)cn2)nnc1-c1cncc(C)c1` (atropisomer, axis not shown) [Example 797.0, (2S,3R, P)-N-(4-(2-methoxyphenyl)-5-(5-methyl-3-pyridinyl)-4H-1,2,4-triazol-3-yl)-3-(5-methyl-2-pyrimidinyl)-2-butanesulfonamide and (2S,3R, M)-N-(4-(2-methoxyphenyl)-5-(5-methyl-3-pyridinyl)-4H-1,2,4-triazol-3-yl)-3-(5-methyl-2-pyrimidinyl)-2-butanesulfonamide], the EC50 came to 2.4 nM. For the molecule `COc1cccc(-c2nnc(NS(=O)(=O)[C@@H](C)[C@H](OC)c3ncc(C)cn3)n2-c2cc(C)ccc2OC)n1` (atropisomer, axis not shown; (P)) [Example 40.0, (1R,2S,P)-1-methoxy-N-(4-(2-methoxy-5-methylphenyl)-5-(6-methoxypyridin-2-yl)-4H-1,2,4-triazol-3-yl)-1-(5-methylpyrimidin-2-yl)propane-2-sulfonamide and (1R,2S,M)-1-methoxy-N-(4-(2-methoxy-5-methylphenyl)-5-(6-methoxypyridin-2-yl)-4H-1,2,4-triazol-3-yl)-1-(5-methylpyrimidin-2-yl)propane-2-sulfonamide], the EC50 turned out to be 4.7 nM. For `COc1cccc(-c2nnc(NS(=O)(=O)[C@@H](C)[C@H](OC)c3ncc(C)cn3)n2-c2ccccc2OC)n1` (atropisomer, axis not shown; (P)) [Example 52.0, (1R,2S,P)-1-methoxy-N-(4-(2-methoxyphenyl)-5-(6-methoxy-2-pyridinyl)-4H-1,2,4-triazol-3-yl)-1-(5-methyl-2-pyrimidinyl)-2-propanesulfonamide and (1R,2S,M)-1-methoxy-N-(4-(2-methoxyphenyl)-5-(6-methoxy-2-pyridinyl)-4H-1,2,4-triazol-3-yl)-1-(5-methyl-2-pyrimidinyl)-2-propanesulfonamide] the value was 4.2 nM; for `COc1cccc(-c2nnc(NS(=O)(=O)[C@@H](C)[C@H](OC)c3ncc(C)cn3)n2-c2cccc(Cl)c2C)n1` (atropisomer, axis not shown; (P)) [Example 55.0, (1R,2S,P)-N-(4-(3-chloro-2-methylphenyl)-5-(6-methoxy-2-pyridinyl)-4H-1,2,4-triazol-3-yl)-1-methoxy-1-(5-methyl-2-pyrimidinyl)-2-propanesulfonamide and (1R,2S,M)-N-(4-(3-chloro-2-methylphenyl)-5-(6-methoxy-2-pyridinyl)-4H-1,2,4-triazol-3-yl)-1-methoxy-1-(5-methyl-2-pyrimidinyl)-2-propanesulfonamide], 17 nM; for `COc1cccc(-c2nnc(NS(=O)(=O)[C@@H](C)[C@H](OC)c3ncc(C)cn3)n2-c2ccccc2C)n1` (atropisomer, axis not shown; (P)) [Example 61.0, (1R,2S,P)-1-methoxy-N-(5-(6-methoxy-2-pyridinyl)-4-(2-methylphenyl)-4H-1,2,4-triazol-3-yl)-1-(5-methyl-2-pyrimidinyl)-2-propanesulfonamide and (1R,2S,M)-1-methoxy-N-(5-(6-methoxy-2-pyridinyl)-4-(2-methylphenyl)-4H-1,2,4-triazol-3-yl)-1-(5-methyl-2-pyrimidinyl)-2-propanesulfonamide], 6.5 nM.

Regarding `COc1cccc(-c2nnc(NS(=O)(=O)[C@@H](C)[C@H](OC)c3ncc(C)cn3)n2-c2ccc(F)cc2Cl)n1` (atropisomer, axis not shown; (P)) [Example 67.0, (1R,2S,P)-N-(4-(2-chloro-4-fluorophenyl)-5-(6-methoxy-2-pyridinyl)-4H-1,2,4-triazol-3-yl)-1-methoxy-1-(5-methyl-2-pyrimidinyl)-2-propanesulfonamide and (1R,2S,M)-N-(4-(2-chloro-4-fluorophenyl)-5-(6-methoxy-2-pyridinyl)-4H-1,2,4-triazol-3-yl)-1-methoxy-1-(5-methyl-2-pyrimidinyl)-2-propanesulfonamide], the EC50 was determined as 15 nM. Turning to `COc1cccc(-c2nnc(NS(=O)(=O)[C@@H](C)[C@H](OC)c3ncc(C)cn3)n2-c2ccccc2Cl)n1` (atropisomer, axis not shown; (P)) [Example 69.0, (1R,2S,P)-N-(4-(2-chlorophenyl)-5-(6-methoxy-2-pyridinyl)-4H-1,2,4-triazol-3-yl)-1-methoxy-1-(5-methyl-2-pyrimidinyl)-2-propanesulfonamide and (1R,2S,M)-N-(4-(2-chlorophenyl)-5-(6-methoxy-2-pyridinyl)-4H-1,2,4-triazol-3-yl)-1-methoxy-1-(5-methyl-2-pyrimidinyl)-2-propanesulfonamide], the EC50 was found to be 2.1 nM. As to `COc1cccc(-c2nnc(NS(=O)(=O)[C@@H](C)[C@H](OC)c3ncc(C)cn3)n2-c2cccc(C)c2C)n1` (atropisomer, axis not shown; (P)) [Example 70.0, (1R,2S,P)-N-(4-(2,3-dimethylphenyl)-5-(6-methoxy-2-pyridinyl)-4H-1,2,4-triazol-3-yl)-1-methoxy-1-(5-methyl-2-pyrimidinyl)-2-propanesulfonamide and (1R,2S,M)-N-(4-(2,3-dimethylphenyl)-5-(6-methoxy-2-pyridinyl)-4H-1,2,4-triazol-3-yl)-1-methoxy-1-(5-methyl-2-pyrimidinyl)-2-propanesulfonamide], the EC50 is 2.6 nM.

`COc1cccc(-c2nnc(NS(=O)(=O)[C@@H](C)[C@H](OC)c3ncc(C)cn3)n2-c2ccccc2C(F)(F)F)n1` (atropisomer, axis not shown; (P)) [Example 74.0, (1R,2S,P)-1-methoxy-N-(5-(6-methoxy-2-pyridinyl)-4-(2-(trifluoromethyl)phenyl)-4H-1,2,4-triazol-3-yl)-1-(5-methyl-2-pyrimidinyl)-2-propanesulfonamide and (1R,2S,M)-1-methoxy-N-(5-(6-methoxy-2-pyridinyl)-4-(2-(trifluoromethyl)phenyl)-4H-1,2,4-triazol-3-yl)-1-(5-methyl-2-pyrimidinyl)-2-propanesulfonamide]: the EC50 amounted to 2.5 nM. Turning to `COc1cccc(-c2nnc(NS(=O)(=O)[C@@H](C)[C@H](OC)c3ncc(C)cn3)n2-c2ccccc2F)n1` (atropisomer, axis not shown; (P)) [Example 76.0, (1R,2S,P)-N-(4-(2-fluorophenyl)-5-(6-methoxy-2-pyridinyl)-4H-1,2,4-triazol-3-yl)-1-methoxy-1-(5-methyl-2-pyrimidinyl)-2-propanesulfonamide and (1R,2S,M)-N-(4-(2-fluorophenyl)-5-(6-methoxy-2-pyridinyl)-4H-1,2,4-triazol-3-yl)-1-methoxy-1-(5-methyl-2-pyrimidinyl)-2-propanesulfonamide], the EC50 amounted to 3 nM. As for `COc1cccc(-c2nnc(NS(=O)(=O)[C@H](C)Cc3ncc(F)cn3)n2-c2ccccc2OC)n1` (mixture of isomers) [Example 31.0, (2R)-1-(5-fluoropyrimidin-2-yl)-N-(4-(2-methoxyphenyl)-5-(6-methoxypyridin-2-yl)-4H-1,2,4-triazol-3-yl)propane-2-sulfonamide and (2S)-1-(5-fluoropyrimidin-2-yl)-N-(4-(2-methoxyphenyl)-5-(6-methoxypyridin-2-yl)-4H-1,2,4-triazol-3-yl)propane-2-sulfonamide], the EC50 was 2.4 nM.
